# Literature values, collected in patent US5110799A, “Antiherpetic agents” (Merck & Co., Inc., priority 1989, dated 1992).
# Target: ribonucleotide reductase enzyme of herpes simplex virus (Human herpesvirus 1, UniProt P08543)
# Conditions: in vitro; Dutia et al., Cohen et al., U.S. Pat. No. 4,795,740
# Chain of ribonucleotide reductase enzyme of herpes simplex virus (P08543 whole entry): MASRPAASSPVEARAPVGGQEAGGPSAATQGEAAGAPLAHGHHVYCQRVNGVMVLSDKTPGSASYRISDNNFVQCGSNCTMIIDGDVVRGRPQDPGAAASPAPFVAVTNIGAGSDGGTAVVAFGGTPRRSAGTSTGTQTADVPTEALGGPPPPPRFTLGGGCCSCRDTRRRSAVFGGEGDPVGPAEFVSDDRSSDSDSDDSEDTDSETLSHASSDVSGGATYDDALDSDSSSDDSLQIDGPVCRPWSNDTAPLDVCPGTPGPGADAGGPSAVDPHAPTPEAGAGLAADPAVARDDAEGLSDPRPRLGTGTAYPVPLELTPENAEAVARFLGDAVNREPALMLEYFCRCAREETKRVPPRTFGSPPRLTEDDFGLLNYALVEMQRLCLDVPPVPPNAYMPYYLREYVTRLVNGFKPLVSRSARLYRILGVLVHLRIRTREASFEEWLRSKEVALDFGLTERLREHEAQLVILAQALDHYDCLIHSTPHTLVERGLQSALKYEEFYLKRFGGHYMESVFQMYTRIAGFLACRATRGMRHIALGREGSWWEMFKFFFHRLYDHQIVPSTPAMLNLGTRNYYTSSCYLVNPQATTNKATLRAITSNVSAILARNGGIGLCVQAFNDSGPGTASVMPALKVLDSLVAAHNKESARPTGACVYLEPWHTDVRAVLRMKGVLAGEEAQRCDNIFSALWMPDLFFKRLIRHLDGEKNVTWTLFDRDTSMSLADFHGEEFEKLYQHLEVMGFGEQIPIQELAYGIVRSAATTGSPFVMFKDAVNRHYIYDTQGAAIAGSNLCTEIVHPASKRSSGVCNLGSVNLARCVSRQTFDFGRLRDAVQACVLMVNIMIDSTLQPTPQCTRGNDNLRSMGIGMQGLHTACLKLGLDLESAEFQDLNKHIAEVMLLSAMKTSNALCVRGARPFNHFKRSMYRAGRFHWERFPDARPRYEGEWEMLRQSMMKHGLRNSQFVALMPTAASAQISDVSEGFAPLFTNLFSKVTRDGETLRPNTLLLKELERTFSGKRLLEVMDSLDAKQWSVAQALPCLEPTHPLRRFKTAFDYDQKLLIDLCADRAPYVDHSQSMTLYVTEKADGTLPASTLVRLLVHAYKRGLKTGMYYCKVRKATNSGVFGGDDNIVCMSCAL
row,Substance,inhibition of the activity of HSV ribonucleotide reductase
1,Tyr Ala Gly Ala Val Val Asn Asp Leu,inhibited in vitro the activity of this enzyme
2,Tyr gly Ala Val Val Asn Asp Leu,inhibited in vitro the activity of this enzyme
